Source: article PMC10518717, “High-Throughput Screening and Proteomic Characterization of Compounds Targeting Myeloid-Derived Suppressor Cells” (Molecular & Cellular Proteomics : MCP, 2023)

Tested on: NUP-MDSC
Assay: Global proteome expression profiling of compound-treated NUP-MDSC (TMT LC-MS/MS)
Format: cell-based, mouse
Conditions: for log2 FC cmpd2/cmpd3: cmpd2 versus cmpd3, NUP-MDSC; for normalized reporter intensities R1: replicate R1, compound-treated NUP-MDSC; for normalized reporter intensities R3: replicate R3, compound-treated NUP-MDSC
Procedure: After treatments, medium was removed, cells were washed twice with PBS, and the cell pellets were further subjected to proteomic sample preparation.
The cell pellet was reconstituted in 2% SDS in 50 mM Tris–HCl pH 7.5 and lysed by heating to 95 °C for 10 min. One microliter of 100% TFA was added to each sample to hydrolyze DNA, and the pH was subsequently adjusted to 8.5 with 3 M Tris solution. Disulfide bonds were reduced with 10 mM DTT for 45 min at 37 °C, followed by alkylation of cysteines with 55 mM CAA for 30 min at room temperature. Prior to tryptic digestion, the detergent was removed from lysates by SP3 cleanup on an Agilent BRAVO system (Agilent Technologies), following the protocol first described by Hughes et al. ([34]). Briefly, lysate containing 200 μg of protein was mixed with SP3 beads, and proteins were precipitated onto a 50:50 mixture of Sera-Mag Speed Bead types A and B (Thermo Fisher Scientific) in 58% acetonitrile. Beads were washed three times with 80% ethanol in water and once with acetonitrile. Tryptic digest was performed in 100 μl of digestion buffer (2 mM CaCl2 in 25 mM Hepes, pH 8.5) with a 1:50 enzyme-to-protein ratio. Bead-precipitated proteins were digested at 37 °C overnight. On the next day, the supernatant of each sample was transferred to a new well and vacuum dried.
Dried peptides were reconstituted in water and labeled with the respective TMT10plex-labeling reagent as described previously ([35]) with a protein to tandem mass tag (TMT) reagent ratio of 1:2. Labeled samples were pooled, vacuum dried, and reconstituted in 0.1% formic acid (FA) prior to desalting on SepPAC50 columns (waters corp.). Peptides were fractionated using a Dionex Ultra 3000 HPLC system with a Waters XBridge BEH130 C18 3.5 um 2.1 × 250 mm column as described previously ([36]). Ninety-six fractions were collected and pooled to 48. For the full proteome analysis, one fifth of each fraction was transferred to a new 96-well plate and both plates were vacuum dried. For the phosphopeptide analysis, dried peptides were reconstituted in 55 μl 0.1% TFA in 30% ACN, pooled from 48 to 12 fractions, and mixed with 70 μl priming buffer (0.1% TFA, 100% ACN). Phosphopeptides were enriched from each of the 12 fractions using Fe(III)-IMAC-NTA cartridges on the AssayMAP BRAVO (Agilent Technologies) platform as described previously ([36]). Phosphopeptides were eluted with 60 μl 1% ammonia, vacuum dried, and stored at −20 °C prior to LC-MS/MS analysis.
The Fusion Lumos was operated in data-dependent acquisition and positive ionization mode. Samples were measured employing a MS3 method. In brief, full scan MS1 spectra were recorded in the orbitrap (OT) from 360 to 1560 m/z at 60,000 resolution using an automatic gain control (AGC) target value of 4e5 charges and a maximum injection time (maxIT) of 50 ms. Iontrap-MS2 spectra for peptide identification were acquired using higher energy collision dissociation (HCD) fragmentation with 32% normalized collision energy (NCE), an isolation window of 0.6 m/z, and an AGC target value of 1.2e4 charges. To obtain quantitative information on TMT reporter ions, each peptide precursor was fragmented again as for MS2 analysis followed by synchronous selection of the up to eight most intense peptide fragments in the iontrap ([37]) and further fragmentation via HCD using a NCE of 55%. The MS3 scan was recorded in the OT at 50,000 resolution (scan range 100–1000 m/z, isolation window of 1.2 m/z, AGC of 1e5 charges, maxIT of 86 ms). The cycle time was 1.2 s, and the dynamic exclusion lasted for 50 s.
Peptide, protein, and phosphorylation site identification and quantification were performed with MaxQuant software (v. 1.6.3.3, https://www.maxquant.org/) with standard settings for reporter ion MS3 unless described otherwise ([39]). Isotope impurities of the TMT lot were specified to allow MaxQuant the automated correction of TMT intensities. […]

[1] = protein 0610011F06Rik / Mettl26 (Q9DCS2)
[2] = protein 0610037L13Rik / Czib (Q8BHG2)
[3] = protein Trappc2 (Q8R3W2;Q9CQP2)

SMILES	expression of proteins associated with detoxification by peroxiredoxin and further ROS-reducing proteins (Prdx1, Txnrd1, Srxn1, Cat, Nqo1, Blvrb) (3xEC50, 72 h, relative to compound 3 at 10 μM)	log2 FC cmpd2/cmpd3 [1]	normalized reporter intensities R1 [1]	normalized reporter intensities R3 [1]	log2 FC cmpd2/cmpd3 [2]	normalized reporter intensities R1 [2]	normalized reporter intensities R3 [2]	log2 FC cmpd2/cmpd3 (protein Bap18 (D3Z687;Q9DCT6))	normalized reporter intensities R1 (protein Bap18 (D3Z687;Q9DCT6))	normalized reporter intensities R3 (protein Bap18 (D3Z687;Q9DCT6))	log2 FC cmpd2/cmpd3 [3]	normalized reporter intensities R1 [3]	normalized reporter intensities R3 [3]
CCOC(=O)c1nnn(-c2nn3nnnc3c3ccccc23)c1C [compound 2]	upregulated	-0.03832	20.3044	20.1769	-0.06333	20.0663	19.9557	-0.2777	16.8475	16.9614	-0.004852	18.4905	18.3959
c1ccc2c(c1)c(-n1ccnc1)nn1nnnc21 [compound 3]	–	–	20.3551	20.1713	–	20.1036	20.057	–	17.1673	17.2868	–	18.5332	18.3626
